Source: the supplement of paper PMC8149375

Key:
Settings in all cases: treatment: drug alone; 5 days
CAKI-1 [1] = experiment: minimum viability across doses, drug alone, relative to DMSO (fraction); higher = less growth inhibition
Description: (§1)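 Primary HTS: 8 RCC cell lines treated with 8 doses (up to 10 uM) of each library drug alone for 5 days; viability read by CellTiter-Glo and normalised to DMSO. GI50 was fitted with XLfit (4-parameter), AUC is the area under the dose-response curve, and minimum viability is the lowest fraction of DMSO viability across doses.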

A498 [2] = experiment: as above
Description: as §1

769-P [3] = experiment: as above
Description: as §1

SN12C [4] = experiment: as above
Description: as §1

786-O [5] = experiment: as above
Description: as §1

TK-10 [6] = experiment: as above
Description: as §1

ACHN [7] = experiment: as above
Description: as §1

UO-31 [8] = experiment: as above
Description: as §1

CAKI-1 [9] = experiment: GI50, drug alone; higher = less potent
Description: as §1

A498 [10] = experiment: GI50, drug alone; higher = less potent
Description: as §1

769-P [11] = experiment: GI50, drug alone; higher = less potent
Description: as §1

SN12C [12] = experiment: GI50, drug alone; higher = less potent
Description: as §1

786-O [13] = experiment: GI50, drug alone; higher = less potent
Description: as §1

TK-10 [14] = experiment: GI50, drug alone; higher = less potent
Description: as §1

ACHN [15] = experiment: GI50, drug alone; higher = less potent
Description: as §1

UO-31 [16] = experiment: GI50, drug alone; higher = less potent
Description: as §1

CAKI-1 [17] = experiment: AUC of dose-response viability curve, drug alone (arbitrary (AUC of normalised viability)); higher = less growth inhibition
Description: as §1

A498 [18] = experiment: as above
Description: as §1

769-P [19] = experiment: as above
Description: as §1

SN12C [20] = experiment: as above
Description: as §1

786-O [21] = experiment: as above
Description: as §1

TK-10 [22] = experiment: as above
Description: as §1

ACHN [23] = experiment: as above
Description: as §1

UO-31 [24] = experiment: as above
Description: as §1

| SMILES | minimum viability across doses (CAKI-1 [1]) | minimum viability across doses (A498 [2]) | minimum viability across doses (769-P [3]) | minimum viability across doses (SN12C [4]) | minimum viability across doses (786-O [5]) | minimum viability across doses (TK-10 [6]) | minimum viability across doses (ACHN [7]) | minimum viability across doses (UO-31 [8]) | GI50, drug alone (CAKI-1 [9]) [nM] | GI50, drug alone (A498 [10]) [nM] | GI50, drug alone (769-P [11]) [nM] | GI50, drug alone (SN12C [12]) [nM] | GI50, drug alone (786-O [13]) [nM] | GI50, drug alone (TK-10 [14]) [nM] | GI50, drug alone (ACHN [15]) [nM] | GI50, drug alone (UO-31 [16]) [nM] | AUC of dose-response viability curve (CAKI-1 [17]) | AUC of dose-response viability curve (A498 [18]) | AUC of dose-response viability curve (769-P [19]) | AUC of dose-response viability curve (SN12C [20]) | AUC of dose-response viability curve (786-O [21]) | AUC of dose-response viability curve (TK-10 [22]) | AUC of dose-response viability curve (ACHN [23]) | AUC of dose-response viability curve (UO-31 [24]) |
| --- | --- | --- | --- | --- | --- | --- | --- | --- | --- | --- | --- | --- | --- | --- | --- | --- | --- | --- | --- | --- | --- | --- | --- | --- |
| c1cncc(CN2CCC(n3ncc4c(N5CCOCC5)nc(-c5ccc6[nH]ccc6c5)nc43)CC2)c1 [WAY-600] | 0.0276 | 0.0996 | 0.0444 | 0.164 | 0.00124 | 0.0825 | 0.0599 | 0.00348 | 624 | 5840 | 2040 | 1900 | 372 | 744 | 689 | 1150 | 2.23 | 4.54 | 2.73 | 2.51 | 1.79 | 2.23 | 2.32 | 3.04 |
| COc1cc2ncnc(Nc3ccc(O)c(Br)c3)c2cc1OC [WHI-P154] | 0.351 | 0.955 | 0.553 | 0.789 | 0.594 | 0.435 | 0.27 | 1.1 | 6600 | > 10000 | > 10000 | > 10000 | > 10000 | 2480 | 1510 | > 10000 | 3.22 | 5.3 | 3.27 | 3.48 | 3.09 | 2.33 | 2.49 | 6.61 |
| C[C@H](NC(=O)/C(C#N)=C/c1cccc(Br)n1)c1ccccc1 [WP1066] | 0.371 | 0.986 | 0.0246 | 0.581 | 0.015 | 0.932 | 0.13 | 0.00632 | 8920 | > 10000 | 5250 | > 10000 | 4470 | > 10000 | 6700 | 7860 | 3.38 | 4.19 | 3.44 | 3.23 | 3.07 | 3.62 | 3.23 | 4.12 |
| CCC[C@H](NC(=O)/C(C#N)=C/c1cccc(Br)n1)c1ccccc1 [WP1130] | 0.0261 | 0.0682 | 0.0147 | 0.0172 | 0.00591 | 0.0704 | 0.00429 | 0.0144 | 4520 | 5120 | 4250 | 4460 | 1540 | 4100 | 4370 | 8040 | 3.18 | 3.33 | 3.17 | 2.97 | 2.24 | 2.56 | 3.26 | 3.72 |
| COC(=O)Nc1ccc(-c2nc(N3CCOCC3)c3cnn(C4CCN(C(=O)OC)CC4)c3n2)cc1 [WYE-354] | 0.127 | 0.409 | 0.165 | 0.274 | 0.346 | 0.293 | 0.167 | 0.0127 | 1260 | 6590 | 2270 | 1890 | 476 | 1570 | 611 | 2570 | 2.49 | 3.73 | 2.75 | 2.54 | 1.9 | 2.35 | 2.21 | 3.63 |
| COC(=O)Nc1ccc(-c2nc(N3CCOCC3)c3cnn(C4CCN(Cc5cccnc5)CC4)c3n2)cc1 [WYE-687] | 0.075 | 0.351 | 0.184 | 0.141 | 0.441 | 0.0981 | 0.0636 | 0.00593 | 577 | 4610 | 1590 | 996 | 1480 | 501 | 551 | 581 | 2.23 | 3.76 | 2.67 | 2.45 | 2.92 | 2.1 | 2.34 | 2.83 |
| C=CC(=O)Nc1cccc(Oc2nc(Nc3ccc(N4CCN(C)CC4)cc3)ncc2Cl)c1 [WZ3146] | 0.0135 | 0.452 | 0.146 | 0.0769 | 0.046 | 0.0399 | 0.0569 | 0.0177 | 958 | 9890 | 1900 | 2340 | 1450 | 504 | 496 | 2600 | 2.62 | 3.49 | 2.71 | 2.85 | 2.27 | 2.07 | 2.34 | 3.76 |
| C=CC(=O)Nc1cccc(Oc2nc(Nc3ccc(N4CCN(C)CC4)cc3OC)ncc2Cl)c1 [WZ4002] | 0.385 | 0.796 | 0.576 | 0.151 | 0.547 | 0.0574 | 0.0645 | 0.0165 | 3380 | > 10000 | > 10000 | 4510 | > 10000 | 1190 | 845 | 8030 | 2.96 | 4.01 | 2.97 | 2.87 | 2.59 | 2.42 | 2.38 | 3.99 |
| C=CC(=O)Nc1cccc(Sc2nc(Nc3ccc(N4CCN(C)CC4)cc3)ncc2Cl)c1 [WZ8040] | 0.00227 | 0.282 | 0.0235 | 0.00541 | 0.00441 | 0.024 | 0.0112 | 0.0196 | 2310 | 9250 | 2960 | 4060 | 2910 | 2090 | 1280 | 8210 | 2.51 | 3.77 | 2.81 | 2.85 | 2.46 | 2.42 | 2.45 | 3.39 |
| COC[C@H]1OC(=O)c2coc3c2[C@@]1(C)C1=C(C3=O)[C@@H]2CCC(=O)[C@@]2(C)C[C@@H]1OC(C)=O [Wortmannin] | 0.301 | 0.421 | 0.55 | 0.387 | 0.00957 | 0.725 | 0.426 | 0.643 | 2420 | 83.3 | > 10000 | 83.5 | 49.3 | > 10000 | 98.1 | > 10000 | 2.45 | 3.03 | 3.15 | 2.78 | 1.99 | 3.1 | 2.78 | 2.58 |
| Cc1ccc(S(=O)(=O)Nc2nc3ccccc3nc2Nc2ccc3nsnc3c2)cc1 [XL147] | 1.03 | 0.933 | 0.884 | 0.92 | 0.768 | 0.902 | 0.811 | 1.13 | > 10000 | > 10000 | > 10000 | > 10000 | > 10000 | > 10000 | > 10000 | > 10000 | 3.82 | 3.61 | 3.3 | 3.52 | 3.2 | 3.52 | 3.19 | 4.38 |
| COc1cc2nccc(Oc3ccc(NC(=O)C4(C(=O)Nc5ccc(F)cc5)CC4)cc3)c2cc1OC [XL-184 free base (Cabozantinib)] | 0.116 | 0.805 | 0.557 | 0.279 | 0.222 | 0.102 | 0.221 | 0.675 | 4710 | > 10000 | > 10000 | 5270 | 5690 | 4140 | 1340 | > 10000 | 3.2 | 3.95 | 3.39 | 2.92 | 3.06 | 2.91 | 2.25 | 3.88 |
| COCC[n+]1c2c(n(Cc3cnccn3)c1C)C(=O)c1ccccc1C2=O [YM155] | 0.00636 | 0.0106 | 0.00858 | 0.00269 | 0.00377 | 0.0341 | 0.00196 | 0.00519 | 12.5 | 12.4 | 14.5 | 11.3 | > 10000 | 27.7 | 13.3 | 25.6 | 0.655 | 0.68 | 0.736 | 0.567 | 0.165 | 1.14 | 0.648 | 0.852 |
| FC(F)c1nc2ccccc2n1-c1nc(N2CCOCC2)nc(N2CCOCC2)n1 [ZSTK474] | 0.109 | 0.0458 | 0.127 | 0.172 | 0.0739 | 0.158 | 0.0879 | 0.0171 | 431 | 2170 | 1090 | 1230 | 299 | 547 | 699 | 1450 | 2.12 | 2.84 | 2.38 | 2.48 | 1.95 | 2.17 | 2.36 | 2.73 |
| O=C(O)c1ccc2c(c1)nc(Nc1cccc(Cl)c1)c1ccncc12 [cx-4945 (Silmitasertib)] | 0.0814 | 0.956 | 0.679 | 0.681 | 0.259 | 0.634 | 0.238 | 0.541 | 3970 | > 10000 | > 10000 | > 10000 | 5230 | > 10000 | 8870 | > 10000 | 3.07 | 4.21 | 3.12 | 3.06 | 2.33 | 3.01 | 3.2 | 4.43 |
